Measurements: ChEMBL document CHEMBL4831524, “AZD0284, a Potent, Selective, and Orally Bioavailable Inverse Agonist of Retinoic Acid Receptor-Related Orphan Receptor C2” (J Med Chem, 2021)
pIC50: −log10 of the molar value.

Tests used:
[1] = Biliary clearance in Han Wistar rat at 1 mg/kg, iv; format: ADME, organism-based, Bile; details: in vivo
[2] = Fraction absorbed in Han Wistar rat at 50 mg/kg, po using EtOH form of sample; format: ADME, organism-based; details: in vivo, read-out: Fabs
Mus musculus [3] = species: Mus musculus; assay: animal or person; details: C57BL/6NCrl, sc, 168 h, read-out: INH
[4] = Metabolic stability in mouse hepatocytes assessed as intrinsic clearance measured per 10^6 cells; format: ADME, cell-based, Hepatocyte; details: read-out: CLH
[5] = Total plasma clearance in C57BL/6 mouse at 1 mg/kg, iv; format: ADME, organism-based
[6] = Apparent permeability across basolateral to apical side in human Caco-2 cells; format: ADME, cell-based
[7] = Total plasma clearance in Han Wistar rat at 1 mg/kg, iv; format: ADME, organism-based
physchem = details: 1-octanol/phosphate buffered saline, pH 7.4
[8] = Oral bioavailability in Han Wistar rat at 50 mg/kg using crystaline form of sample; format: ADME, organism-based; details: in vivo
[9] = Half life in C57BL/6 mouse at 1 mg/kg, iv; format: ADME, organism-based; details: in vivo
Mus musculus [10] = species: Mus musculus; assay: animal or person; details: C57BL/6NCrl, sc, 168 h, read-out: INH; remark: listed apart in the source
[11] = Fraction absorbed in Beagle dog at 3 mg/kg, po using amorphous form of sample; format: ADME, organism-based, Canis lupus familiaris; details: in vivo, read-out: Fabs
[12] = Plasma protein binding in rat assessed as unbound fraction by equilibrium dialysis; format: ADME, cell-free
[13] = Oral bioavailability in C57BL/6 mouse at 2 mg/kg using amorphous form of sample; format: ADME, organism-based; details: in vivo
[14] = Plasma protein binding in mouse assessed as unbound fraction by equilibrium dialysis; format: ADME, cell-free
[15] = Renal clearance in Han Wistar rat at 0.5 mg/kg, iv; format: ADME, organism-based, Kidney; details: in vivo
[16] = Fraction absorbed in Beagle dog at 10 mg/kg, po using crystaline form of sample; format: ADME, organism-based, Canis lupus familiaris; details: in vivo, read-out: Fabs
[17] = Total plasma clearance in Beagle dog at 1 mg/kg, iv; format: ADME, organism-based, Canis lupus familiaris
[18] = Half life in Han Wistar rat at 0.5 mg/kg, iv; format: ADME, organism-based; details: in vivo
[19] = Plasma protein binding in dog assessed as unbound fraction by equilibrium dialysis; format: ADME, cell-free, Canis lupus familiaris
[20] = Metabolic stability in dog hepatocytes assessed as intrinsic clearance measured per 10^6 cells; format: ADME, cell-based, Canis lupus familiaris, Hepatocyte; details: read-out: CLH
[21] = Half life in Beagle dog at 1 mg/kg, iv; format: ADME, organism-based, Canis lupus familiaris; details: in vivo
[22] = Volume of distribution at steady state in Han Wistar rat at 0.5 mg/kg, iv; format: ADME, organism-based; details: in vivo, read-out: Vdss
[23] = Oral bioavailability in Han Wistar rat at 1 mg/kg using amorphous form of sample; format: ADME, organism-based; details: in vivo
[24] = Oral bioavailability in Beagle dog at 10 mg/kg using crystaline form of sample; format: ADME, organism-based, Canis lupus familiaris; details: in vivo
[25] = Oral bioavailability in Beagle dog at 3 mg/kg using amorphous form of sample; format: ADME, organism-based, Canis lupus familiaris; details: in vivo
[26] = Fraction absorbed in Han Wistar rat at 50 mg/kg, po using crystaline form of sample; format: ADME, organism-based; details: in vivo, read-out: Fabs
in vitro [27] = details: human, liver microsomes
MDR1 [28] = assay: Apparent permeability across apical to basolateral side in dog MDCK-MDR1 cells; format: ADME, cell-based, Canis lupus familiaris
[29] = Fraction absorbed in C57BL/6 mouse at 2 mg/kg, po using amorphous form of sample; format: ADME, organism-based; details: in vivo, read-out: Fabs
[30] = Volume of distribution at steady state in C57BL/6 mouse at 1 mg/kg, iv; format: ADME, organism-based; details: in vivo, read-out: Vdss
[31] = Fraction absorbed in Han Wistar rat at 1 mg/kg, po using amorphous form of sample; format: ADME, organism-based; details: in vivo, read-out: Fabs
[32] = Volume of distribution at steady state in Beagle dog at 1 mg/kg, iv; format: ADME, organism-based, Canis lupus familiaris; details: in vivo, read-out: Vdss
[33] = Oral bioavailability in Han Wistar rat at 50 mg/kg using EtOH form of sample; format: ADME, organism-based; details: in vivo
MDR1 [34] = assay: Apparent permeability across basolateral to apical side in dog MDCK-MDR1 cells; format: ADME, cell-based, Canis lupus familiaris
[35] = Apparent permeability across apical to basolateral side in human Caco-2 cells; format: ADME, cell-based
[36] = target: Voltage-gated inwardly rectifying potassium channel KCNH2 (Homo sapiens, UniProt Q12809)
Chain of Voltage-gated inwardly rectifying potassium channel KCNH2 (Q12809 whole entry): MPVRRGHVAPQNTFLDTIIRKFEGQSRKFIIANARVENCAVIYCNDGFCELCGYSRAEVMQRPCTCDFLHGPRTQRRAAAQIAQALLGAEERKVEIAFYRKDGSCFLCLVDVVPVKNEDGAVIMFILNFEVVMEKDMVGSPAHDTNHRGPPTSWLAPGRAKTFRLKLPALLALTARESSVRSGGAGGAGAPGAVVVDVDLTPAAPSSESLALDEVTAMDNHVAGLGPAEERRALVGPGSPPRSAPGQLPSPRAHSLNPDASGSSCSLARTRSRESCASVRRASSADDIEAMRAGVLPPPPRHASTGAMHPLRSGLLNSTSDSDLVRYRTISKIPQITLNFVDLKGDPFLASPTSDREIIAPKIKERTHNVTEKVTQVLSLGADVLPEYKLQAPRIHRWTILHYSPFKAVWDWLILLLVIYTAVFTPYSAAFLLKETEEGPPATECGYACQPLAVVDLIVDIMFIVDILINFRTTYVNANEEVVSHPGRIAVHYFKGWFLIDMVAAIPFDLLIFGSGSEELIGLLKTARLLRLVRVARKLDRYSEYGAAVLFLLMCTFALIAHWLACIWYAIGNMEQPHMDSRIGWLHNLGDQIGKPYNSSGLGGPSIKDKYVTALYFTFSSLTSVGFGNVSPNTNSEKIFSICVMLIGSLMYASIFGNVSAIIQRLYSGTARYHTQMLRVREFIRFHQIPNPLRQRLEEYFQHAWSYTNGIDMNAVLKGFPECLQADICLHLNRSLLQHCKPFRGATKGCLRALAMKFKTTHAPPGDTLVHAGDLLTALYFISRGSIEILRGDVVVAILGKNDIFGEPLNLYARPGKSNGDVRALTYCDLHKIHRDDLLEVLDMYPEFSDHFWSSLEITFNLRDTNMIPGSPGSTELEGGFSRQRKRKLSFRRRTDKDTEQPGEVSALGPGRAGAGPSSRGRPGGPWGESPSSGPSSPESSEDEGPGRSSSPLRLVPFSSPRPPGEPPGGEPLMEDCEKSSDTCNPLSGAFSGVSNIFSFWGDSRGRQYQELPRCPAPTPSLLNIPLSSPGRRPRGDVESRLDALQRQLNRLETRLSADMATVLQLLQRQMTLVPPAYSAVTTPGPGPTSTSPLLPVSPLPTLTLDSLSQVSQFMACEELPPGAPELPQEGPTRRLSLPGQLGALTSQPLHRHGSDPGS

cells = details: Homo sapiens, Th17, 96 h
[37] = Intrinsic permeability of compound from apical to basolateral side in human Caco2 cells; format: ADME, cell-based; details: Caco-2
in vitro [38] = details: human, hepatocytes
in vitro [39] = details: rat, hepatocytes
in vivo [40] = details: Han Wistar, rat, po, 1 mg/kg
in vivo [41] = details: Han Wistar, rat, po, 1 mg/kg; remark: listed apart in the source
in vivo [42] = details: Han Wistar, rat, po, 1 mg/kg; remark: listed apart in the source
[43] = rat, in vivo, po, 1 mg/kg

Structure (SMILES): CC(=O)N1Cc2cc(S(C)(=O)=O)ccc2[C@@H]1C(=O)Nc1ccc(C(O)(C(F)(F)F)C(F)(F)F)cc1
- CL [1]: 0.024 L/h/kg
- Fa [2]: 42%
- inhibition in vivo at 15 mg/kg (Mus musculus [3]): 67%
- hepatocyte CLint [4]: 2.3 µL/min/1e6 cells
- clearance [5]: 0.63 L/h/kg
- Papp B→A [6]: 160 nm/s
- clearance [7]: 0.744 L/h/kg
- logD (physchem): 2.4
- bioavailability [8]: 5%
- half-life [9]: 2.7 h
- inhibition in vivo at 50 mg/kg (Mus musculus [10]): 65%
- Fa [11]: 99%
- fraction unbound [12]: 0.23
- bioavailability [13]: 67%
- fraction unbound [14]: 0.21
- CL renal [15]: 0.174 L/h/kg
- Fa [16]: 52%
- clearance [17]: 0.114 L/h/kg
- half-life [18]: 3.3 h
- fraction unbound [19]: 0.12
- hepatocyte CLint [20]: < 1 µL/min/1e6 cells
- half-life [21]: 16.6 h
- Vd [22]: 2.5 L/kg
- bioavailability [23]: 34%
- bioavailability [24]: 50%
- bioavailability [25]: 97%
- Fa [26]: 6%
- microsomal CLint (in vitro [27]): < 3 µL/min/mg
- Papp A→B (MDR1 [28]): 9 nm/s
- Fa [29]: 71%
- Vd [30]: 1.3 L/kg
- Fa [31]: 41%
- Vd [32]: 1.9 L/kg
- bioavailability [33]: 35%
- Papp B→A (MDR1 [34]): 160 nm/s

Structure (SMILES): CCS(=O)(=O)c1ccc(C(Cn2cccn2)C(=O)Nc2ccc(C(O)(C(F)(F)F)C(F)(F)F)cc2)cc1 (stereo not given)
- Papp A→B [35]: 26 nm/s
- pIC50 [36]: 5.62
- logD (physchem): > 4
- pIC50 (cells): 6.44
- Pm [37]: 44
- microsomal CLint (in vitro [27]): 16 µL/min/mg

Structure (SMILES): NCCC(=O)N1Cc2cc(S(=O)(=O)CC3CC3)ccc2C1C(=O)Nc1ccc(C(O)(C(F)(F)F)C(F)(F)F)cc1 (stereo not given)
- logD (physchem): 1.1
- microsomal CLint (in vitro [27]): < 3 µL/min/mg

Structure (SMILES): CNC(=O)N1Cc2cc(S(C)(=O)=O)ccc2C1C(=O)Nc1ccc(C(O)(C(F)(F)F)C(F)(F)F)cc1 (stereo not given)
- logD (physchem): 2.5
- microsomal CLint (in vitro [27]): < 3 µL/min/mg

Structure (SMILES): CC(=O)N1CCc2cc(S(C)(=O)=O)ccc2C1C(=O)Nc1ccc(C(O)(C(F)(F)F)C(F)(F)F)cc1 (racemic)
- logD (physchem): 2.9
- microsomal CLint (in vitro [27]): < 3 µL/min/mg

Structure (SMILES): CC(=O)N1Cc2cc(S(C)(=O)=O)ccc2C1C(=O)Nc1ccc(C(O)(C(F)(F)F)C(F)(F)F)cc1 (racemic)
- hepatocyte CLint (in vitro [38]): < 1 µL/min/1e6 cells
- logD (physchem): 2.4
- hepatocyte CLint (in vitro [39]): < 1 µL/min/1e6 cells
- microsomal CLint (in vitro [27]): < 3 µL/min/mg
- half-life (in vivo [40]): 4.9 h
- CL/F (in vivo [41]): 0.378 L/h/kg
- bioavailability (in vivo [42]): 40%
- Vdss [43]: 2 L/kg

Structure (SMILES): CCS(=O)(=O)c1ccc([C@H](CC(=O)NC)C(=O)Nc2ccc(C(O)(C(F)(F)F)C(F)(F)F)cc2)cc1
- pIC50 [36]: < 4.40
- logD (physchem): 3.1
- microsomal CLint (in vitro [27]): < 3 µL/min/mg

Structure (SMILES): CS(=O)(=O)c1ccc2c(c1)CNC2C(=O)Nc1ccc(C(O)(C(F)(F)F)C(F)(F)F)cc1 (stereo not given)
- logD (physchem): 3
- microsomal CLint (in vitro [27]): < 3 µL/min/mg

Structure (SMILES): CCS(=O)(=O)c1ccc([C@@H](CC(=O)NC)C(=O)Nc2ccc(C(O)(C(F)(F)F)C(F)(F)F)cc2)cc1
- Papp A→B [35]: 3 nm/s
- pIC50 [36]: < 4.40
- logD (physchem): 3.2
- Pm [37]: 3.2
- microsomal CLint (in vitro [27]): < 3 µL/min/mg

Structure (SMILES): CCS(=O)(=O)c1ccc2c(c1)CN(C=O)C2C(=O)Nc1ccc(C(O)(C(F)(F)F)C(F)(F)F)cc1 (stereo not given)
- logD (physchem): 2.9
- microsomal CLint (in vitro [27]): < 3 µL/min/mg

Structure (SMILES): CS(=O)(=O)c1ccc2c(c1)CN(C(=O)CO)C2C(=O)Nc1ccc(C(O)(C(F)(F)F)C(F)(F)F)cc1 (stereo not given)
- logD (physchem): 1.9
- microsomal CLint (in vitro [27]): < 3 µL/min/mg

Structure (SMILES): CCS(=O)(=O)c1ccc(C(NC(=O)Cc2ccccn2)C(=O)Nc2ccc(C(O)(C(F)(F)F)C(F)(F)F)cc2)nc1 (stereo not given)
- pIC50 [36]: 5.39
- logD (physchem): 2.8
- microsomal CLint (in vitro [27]): < 3 µL/min/mg

Structure (SMILES): CC(=O)N1Cc2cc(S(=O)(=O)CC3CC3)ccc2C1C(=O)Nc1ccc(C(O)(C(F)(F)F)C(F)(F)F)cc1 (stereo not given)
- logD (physchem): 3.4
- microsomal CLint (in vitro [27]): < 3 µL/min/mg

Structure (SMILES): COCCS(=O)(=O)c1ccc2c(c1)CN(C(C)=O)C2C(=O)Nc1ccc(C(O)(C(F)(F)F)C(F)(F)F)cc1 (stereo not given)
- logD (physchem): 2.5
- microsomal CLint (in vitro [27]): 11 µL/min/mg

Structure (SMILES): CC(=O)N1Cc2cc(S(C)(=O)=O)ccc2[C@H]1C(=O)Nc1ccc(C(O)(C(F)(F)F)C(F)(F)F)cc1
- logD (physchem): 2.4
- microsomal CLint (in vitro [27]): < 3 µL/min/mg

Structure (SMILES): CS(=O)(=O)c1ccc2c(c1)CN(C(=O)CCC#N)C2C(=O)Nc1ccc(C(O)(C(F)(F)F)C(F)(F)F)cc1 (stereo not given)
- logD (physchem): 2.3
- microsomal CLint (in vitro [27]): < 3 µL/min/mg

Structure (SMILES): CS(=O)(=O)c1ccc2c(c1)CN(C(=O)C1CCO1)C2C(=O)Nc1ccc(C(O)(C(F)(F)F)C(F)(F)F)cc1 (stereo not given)
- logD (physchem): 2.2
- microsomal CLint (in vitro [27]): < 3 µL/min/mg

Structure (SMILES): CCS(=O)(=O)c1ccc(C(NC(=O)OC)C(=O)Nc2ccc(C(O)(C(F)(F)F)C(F)(F)F)cc2)nc1 (stereo not given)
- pIC50 [36]: 5.03
- logD (physchem): 2.9
- microsomal CLint (in vitro [27]): < 3 µL/min/mg
